Source: patent US5508428A, “Spiro compound” (Daiichi Phamaceutical Co., Ltd., priority 1988, dated 1996)
Values after ≈ are worked out from the molar mass of the structure shown.

What was measured:
Assay type in all cases: cell-based
E. coli, NIHJ = experiment: Antibacterial activity (MIC), E. coli NIHJ; settings: Escherichia coli
Description: (§1) The antibacterial activity assays were performed by the method specified by Japan Society of Chemotherapy (Chemotherapy 29(1), 76 (1981). The table of antibacterial activity is followed by the reaction schemes for the synthesis of various spiro ring-containing cyclic amine derivatives, intermediate compounds for synthesis of quinolone rings and synthesis of various spiro compounds.

S. flexneri, 2A 5503 = experiment: Antibacterial activity (MIC), S. flexneri 2A 5503; settings: Shigella flexneri, 2A5503
Description: as §1

Pr. vulgaris, 08601 = experiment: Antibacterial activity (MIC), Pr. vulgaris 08601; settings: Proteus vulgaris
Description: as §1

Pr. mirabillis, IF0-3849 = experiment: Antibacterial activity (MIC), Pr. mirabillis IF0-3849
Description: as §1

Ser. marcescens, 10100 = experiment: Antibacterial activity (MIC), Ser. marcescens 10100; settings: Serratia marcescens, 10100, Ser. marcescens
Description: as §1

Ps. aeruginosa, 32104 = experiment: Antibacterial activity (MIC), Ps. aeruginosa 32104; settings: Pseudomonas aeruginosa, 32104, Ps. aeruginosa
Description: as §1

Ps. aeruginosa, 32121 = experiment: Antibacterial activity (MIC), Ps. aeruginosa 32121; settings: Pseudomonas aeruginosa, 32121, Ps. aeruginosa
Description: as §1

[1] = test system: Ps. maltophilia, IID-1275; experiment: Antibacterial activity (MIC), Ps. maltophilia IID-1275; settings: Stenotrophomonas maltophilia, IID1275, Ps. maltophilia
Description: as §1

S. aureus, 209P = experiment: Antibacterial activity (MIC), S. aureus 209P; settings: Staphylococcus aureus
Description: as §1

S. epidermidis, 56500 = experiment: Antibacterial activity (MIC), S. epidermidis 56500; settings: Staphylococcus epidermidis, 56500, S. epidermidis
Description: as §1

Str. pyogenes, G-36 = experiment: Antibacterial activity (MIC), Str. pyogenes G-36; settings: Streptococcus pyogenes, G36, Str. pyogenes
Description: as §1

[2] = test system: Str. faecalis, ATCC-19433; experiment: Antibacterial activity (MIC), Str. faecalis ATCC-19433; settings: Enterococcus faecalis, ATCC19433, Str. faecalis
Description: as §1

For O=C(O)c1cn(C2CC2)c2cc(N3CCNC4(CC4)C3)c(F)cc2c1=O [Compound 37, 1-Cyclopropyl-7-(4,7-diazaspiro[2.5]octan-7-yl)-6-fluoro-1,4-dihydro-4-oxoquinoline-3-carboxylic acid], the MIC (E. coli, NIHJ) was ≤ 0.05 mg/L, the MIC (S. flexneri, 2A 5503) was ≤ 0.05 mg/L and the MIC (Pr. vulgaris, 08601) was ≤ 0.05 mg/L. For the same compound, the MIC (Pr. mirabillis, IF0-3849) was ≤ 0.05 mg/L, the MIC (Ser. marcescens, 10100) was 0.1 mg/L (≈ 0.28 µM) and the MIC (Ps. aeruginosa, 32104) was 0.2 mg/L (≈ 0.56 µM). For the same compound, the MIC (Ps. aeruginosa, 32121) was 0.2 mg/L (≈ 0.56 µM), the MIC [1] was 0.39 mg/L (≈ 1.09 µM) and the MIC (S. aureus, 209P) was 0.2 mg/L (≈ 0.56 µM). The MIC (S. epidermidis, 56500) was 0.39 mg/L (≈ 1.09 µM), the MIC (Str. pyogenes, G-36) was 0.78 mg/L (≈ 2.18 µM) and the MIC [2] was 0.78 mg/L (≈ 2.18 µM).

In the case of O=C(O)c1cn(C2CC2)c2c(Cl)c(N3CC(O)C4(CC4)C3)c(F)cc2c1=O (stereo not drawn) [Compound 39, 7-(7-Hydroxy-5-azaspiro[2.4]heptan-5-yl)-8-chloro-1-cyclopropyl-6-fluoro-1,4-dihydro-4-oxoquinoline-3-carboxylic acid], the MIC (E. coli, NIHJ) is reported as ≤ 0.05 mg/L, the MIC (S. flexneri, 2A 5503) is reported as ≤ 0.05 mg/L and the MIC (Pr. vulgaris, 08601) is reported as ≤ 0.05 mg/L. For the same compound, the MIC (Pr. mirabillis, IF0-3849) was 0.2 mg/L (≈ 0.509 µM), the MIC (Ser. marcescens, 10100) was 0.39 mg/L (≈ 0.993 µM) and the MIC (Ps. aeruginosa, 32104) was 1.56 mg/L (≈ 3.97 µM). For the same compound, the MIC (Ps. aeruginosa, 32121) was 0.39 mg/L (≈ 0.993 µM), the MIC [1] was ≤ 0.05 mg/L and the MIC (S. aureus, 209P) was ≤ 0.05 mg/L. The MIC (S. epidermidis, 56500) was ≤ 0.05 mg/L, the MIC (Str. pyogenes, G-36) was 0.39 mg/L (≈ 0.993 µM) and the MIC [2] was 0.39 mg/L (≈ 0.993 µM).

With CC(C)(C)n1cc(C(=O)O)c(=O)c2cc(F)c(N3CC(N)C4(CC4)C3)nc21 (stereo not drawn) [Compound 41b, 7-(7-Amino-5-azaspiro[2.4]heptan-5-yl)-1,4-dihydro-6-fluoro-1-(2-methyl-2-propyl)-4-oxo-1,8-naphthyridine-3-carboxylic acid] the MIC (E. coli, NIHJ) was ≤ 0.05 mg/L, the MIC (S. flexneri, 2A 5503) was ≤ 0.05 mg/L and the MIC (Pr. vulgaris, 08601) was 0.1 mg/L (≈ 0.267 µM). For the same compound, the MIC (Pr. mirabillis, IF0-3849) was 0.2 mg/L (≈ 0.534 µM), the MIC (Ser. marcescens, 10100) was 0.1 mg/L (≈ 0.267 µM) and the MIC (Ps. aeruginosa, 32104) was 0.2 mg/L (≈ 0.534 µM). The MIC (Ps. aeruginosa, 32121) was 0.1 mg/L (≈ 0.267 µM), the MIC [1] was 0.1 mg/L (≈ 0.267 µM) and the MIC (S. aureus, 209P) was ≤ 0.05 mg/L. The MIC (S. epidermidis, 56500) was 0.1 mg/L (≈ 0.267 µM), the MIC (Str. pyogenes, G-36) was 0.39 mg/L (≈ 1.04 µM) and the MIC [2] was 0.2 mg/L (≈ 0.534 µM).

NC1CN(c2c(F)cc3c(=O)c(C(=O)O)cn(C4CC4)c3c2F)CC12CCC2 (stereo not drawn) [Compound 94] was tested, and the MIC (E. coli, NIHJ) was ≤ 0.05 mg/L, the MIC (S. flexneri, 2A 5503) was ≤ 0.05 mg/L and the MIC (Pr. vulgaris, 08601) was ≤ 0.05 mg/L. It also gave an MIC (Pr. mirabillis, IF0-3849) of 0.1 mg/L (≈ 0.257 µM), an MIC (Ser. marcescens, 10100) of 0.1 mg/L (≈ 0.257 µM) and an MIC (Ps. aeruginosa, 32104) of 0.1 mg/L (≈ 0.257 µM). The MIC (Ps. aeruginosa, 32121) was 0.39 mg/L (≈ 1 µM), the MIC [1] was 0.2 mg/L (≈ 0.514 µM) and the MIC (S. aureus, 209P) was ≤ 0.05 mg/L. The MIC (S. epidermidis, 56500) was ≤ 0.05 mg/L, the MIC (Str. pyogenes, G-36) was 0.39 mg/L (≈ 1 µM) and the MIC [2] was 0.2 mg/L (≈ 0.514 µM).

For NC1CN(c2c(F)cc3c(=O)c(C(=O)O)cn(C4CC4)c3c2F)CC12CCCC2 (stereo not drawn) [Compound 95, 7-(4-amino-2-azaspiro[4.4]nonan-2-yl)-1-cyclopropyl-6,8-difluoro-4-oxo-1,4-dihydroquinoline-3-carboxylic acid], the MIC (E. coli, NIHJ) was ≤ 0.05 mg/L, the MIC (S. flexneri, 2A 5503) was ≤ 0.05 mg/L and the MIC (Pr. vulgaris, 08601) was ≤ 0.05 mg/L. For the same compound, the MIC (Pr. mirabillis, IF0-3849) was ≤ 0.05 mg/L, the MIC (Ser. marcescens, 10100) was 0.1 mg/L (≈ 0.248 µM) and the MIC (Ps. aeruginosa, 32104) was 0.39 mg/L (≈ 0.967 µM). The MIC (Ps. aeruginosa, 32121) was 0.2 mg/L (≈ 0.496 µM), the MIC [1] was 0.1 mg/L (≈ 0.248 µM) and the MIC (S. aureus, 209P) was ≤ 0.05 mg/L. It also gave an MIC (S. epidermidis, 56500) of 0.1 mg/L (≈ 0.248 µM), an MIC (Str. pyogenes, G-36) of 0.2 mg/L (≈ 0.496 µM) and an MIC [2] of 0.2 mg/L (≈ 0.496 µM).

C[C@H]1COc2c(N3CC(N)C4(CCC4)C3)c(F)cc3c(=O)c(C(=O)O)cn1c23 (stereo partly drawn) [Compound 98, 10-(8-Amino-6-azaspiro[3.4]octan-6-yl)-9-fluoro-2,3-dihydro-3-(S)-methyl-7-oxo-7H-pyrido[1,2,3-de][1,4]-benzoxazine-6-carboxylic acid] was tested, and the MIC (E. coli, NIHJ) was ≤ 0.05 mg/L, the MIC (S. flexneri, 2A 5503) was ≤ 0.05 mg/L and the MIC (Pr. vulgaris, 08601) was ≤ 0.05 mg/L. The MIC (Pr. mirabillis, IF0-3849) was 0.2 mg/L (≈ 0.516 µM), the MIC (Ser. marcescens, 10100) was 0.1 mg/L (≈ 0.258 µM) and the MIC (Ps. aeruginosa, 32104) was 0.39 mg/L (≈ 1.01 µM). For the same compound, the MIC (Ps. aeruginosa, 32121) was 0.2 mg/L (≈ 0.516 µM), the MIC [1] was 0.2 mg/L (≈ 0.516 µM) and the MIC (S. aureus, 209P) was ≤ 0.05 mg/L. The MIC (S. epidermidis, 56500) was ≤ 0.05 mg/L, the MIC (Str. pyogenes, G-36) was 0.39 mg/L (≈ 1.01 µM) and the MIC [2] was 0.2 mg/L (≈ 0.516 µM).

For O=C(O)c1cn(C2CC2)c2c(F)c(N3CC(CO)C4(CCC4)C3)c(F)cc2c1=O (stereo not drawn) [Compound 108, 1-Cyclopropyl-6,8,difluoro-7-(8-hydroxymethyl-6-azaspiro-[3.4]octan-6-yl)-4-oxo-1,4-dihydroquinoline-3-carboxylic acid], the MIC (E. coli, NIHJ) was 0.2 mg/L (≈ 0.495 µM), the MIC (S. flexneri, 2A 5503) was 0.2 mg/L (≈ 0.495 µM) and the MIC (Pr. vulgaris, 08601) was 0.1 mg/L (≈ 0.247 µM). The MIC (Pr. mirabillis, IF0-3849) was 0.78 mg/L (≈ 1.93 µM), the MIC (Ser. marcescens, 10100) was 1.56 mg/L (≈ 3.86 µM) and the MIC (Ps. aeruginosa, 32104) was 1.56 mg/L (≈ 3.86 µM). The MIC (Ps. aeruginosa, 32121) was 0.39 mg/L (≈ 0.964 µM), the MIC [1] was 1.56 mg/L (≈ 3.86 µM) and the MIC (S. aureus, 209P) was ≤ 0.05 mg/L. The MIC (S. epidermidis, 56500) was ≤ 0.05 mg/L, the MIC (Str. pyogenes, G-36) was 0.39 mg/L (≈ 0.964 µM) and the MIC [2] was 0.2 mg/L (≈ 0.495 µM).

N[C@@H]1CN(c2nc3c(cc2F)c(=O)c(C(=O)O)cn3-c2ccc(F)cc2F)CC12CC2 [Compound 111b, (-)-7-[7-(S)-amino-5-azaspiro[2.3]heptan-5-yl)-6-fluoro-1-(2,4-difluorophenyl)-1,4-dihydro-4-oxo-1,8-naphthyridine-3-carboxylate] was tested, and the MIC (E. coli, NIHJ) was ≤ 0.05 mg/L, the MIC (S. flexneri, 2A 5503) was ≤ 0.05 mg/L and the MIC (Pr. vulgaris, 08601) was ≤ 0.05 mg/L. For the same compound, the MIC (Pr. mirabillis, IF0-3849) was 0.2 mg/L (≈ 0.465 µM), the MIC (Ser. marcescens, 10100) was 0.1 mg/L (≈ 0.232 µM) and the MIC (Ps. aeruginosa, 32104) was 0.2 mg/L (≈ 0.465 µM). The MIC (Ps. aeruginosa, 32121) was 0.1 mg/L (≈ 0.232 µM), the MIC [1] was 0.2 mg/L (≈ 0.465 µM) and the MIC (S. aureus, 209P) was ≤ 0.05 mg/L. The MIC (S. epidermidis, 56500) was 0.1 mg/L (≈ 0.232 µM), the MIC (Str. pyogenes, G-36) was 0.2 mg/L (≈ 0.465 µM) and the MIC [2] was 0.39 mg/L (≈ 0.906 µM).
